Source: US10954214B2 (Janssen Pharmaceutica NV, priority 2016, dated 2021)

How the values were obtained:
[1] = test system: IL6 secretion by TMD8 ABC-DLBCL cells; experiment: Human IL6 Mesoscale assay (TMD-8); type: cell-based; conditions: TMD-8 cells, 24 h
How it was run: (§1)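 TMD8 or OCI-LY3 cells (100,000/well) were exposed to compounds in 9 twofold dilutions from 15 μM to 58.6 nM (0.3% DMSO) for 24 h at 37 °C. Supernatant IL6 and IL10 were quantified by MSD electrochemiluminescence immunoassay. DMSO defined maximum signal and BTK inhibitor RN486 (30 nM–131 pM) defined maximum inhibition.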

[2] = molecular target: full-length MALT1 protein (Strep-MALT1(1-824)-His) (Homo sapiens (Human), UniProt Q9UDY8); experiment: MALT1 Biochemical Protease Assay (Ac-LRSR-AMC substrate); conditions: 10 nM FL MALT1, 200 μM Ac-LRSR-AMC, 4 h at RT; read-out: MALT1_Biochemical activity (Ac-LRSR-amc) IC50
How it was run: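 Full-length MALT1 pre-incubated with compounds (30 μM to 0.5 nM, 11 threefold steps) for 50 min at RT. After Ac-LRSR-AMC was added, the reaction ran 4 h at RT and AMC fluorescence was read. IC50 and Hill slope from curve fitting against no-enzyme and no-compound controls.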

[3] = test system: IL10 secretion by TMD8 ABC-DLBCL cells; experiment: Human IL10 Mesoscale assay (TMD-8); type: cell-based; conditions: TMD-8 cells, 24 h
How it was run: as §1

Chain of full-length MALT1 protein (Strep-MALT1(1-824)-His) (Q9UDY8 whole entry): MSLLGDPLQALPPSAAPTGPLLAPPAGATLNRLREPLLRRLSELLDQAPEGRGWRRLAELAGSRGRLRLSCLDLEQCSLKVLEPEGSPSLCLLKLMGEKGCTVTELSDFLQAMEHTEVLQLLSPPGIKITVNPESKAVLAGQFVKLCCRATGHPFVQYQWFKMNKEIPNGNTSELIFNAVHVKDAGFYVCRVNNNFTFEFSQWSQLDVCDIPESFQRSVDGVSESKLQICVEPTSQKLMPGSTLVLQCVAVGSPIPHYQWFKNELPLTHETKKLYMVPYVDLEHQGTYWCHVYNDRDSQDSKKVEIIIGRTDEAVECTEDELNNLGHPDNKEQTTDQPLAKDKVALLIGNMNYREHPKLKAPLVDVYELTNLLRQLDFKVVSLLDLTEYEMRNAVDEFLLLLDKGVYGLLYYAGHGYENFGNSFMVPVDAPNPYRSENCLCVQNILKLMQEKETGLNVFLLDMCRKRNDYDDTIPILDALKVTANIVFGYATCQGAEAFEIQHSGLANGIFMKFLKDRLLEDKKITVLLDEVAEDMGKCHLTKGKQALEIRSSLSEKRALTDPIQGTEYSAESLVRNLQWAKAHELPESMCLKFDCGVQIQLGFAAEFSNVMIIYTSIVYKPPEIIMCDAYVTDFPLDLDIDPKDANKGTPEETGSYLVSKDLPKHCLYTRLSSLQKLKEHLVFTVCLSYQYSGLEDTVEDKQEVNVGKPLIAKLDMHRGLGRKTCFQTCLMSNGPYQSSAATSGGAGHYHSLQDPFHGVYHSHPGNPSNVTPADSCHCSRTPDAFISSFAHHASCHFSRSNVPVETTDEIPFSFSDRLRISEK

IC50 ([1]; Homo sapiens, TMD8) [µM]	IC50 [2] [µM]	IC50 ([3]; Homo sapiens, TMD8) [µM]	Compound	IC50 [1] [µM]	IC50 [3] [µM]
2.04	6.03	2.24	CN1C(=O)COc2ccc(NC(=O)c3cnn(-c4cccc5ncccc45)c3C(F)(F)F)cc21 [Cpd 214, N-(4-methyl-3-oxo-3,4-dihydro-2H-benzo[b][1,4]oxazin-6-yl)-1-(quinolin-5-yl)-5-(trifluoromethyl)-1H-pyrazole-4-carboxamide]		
0.224	0.076	0.2	O=C(Nc1cnc(-n2nccn2)c(Cl)c1)c1cnn(-c2c[n+]([O-])cc3ccccc23)c1C(F)(F)F [Cpd 406, 4-(4-((5-chloro-6-(2H-1,2,3-triazol-2-yl)pyridin-3-yl)carbamoyl)-5-(trifluoromethyl)-1H-pyrazol-1-yl)isoquinoline 2-oxide]		
0.186	1.58	0.162	O=C(Nc1cnc(-n2nccn2)c(Cl)c1)c1cnn(-c2cccc3nc([C@H]4CCCO4)ccc23)c1C(F)(F)F (single isomer, unassigned) [Cpd 440, (*R)—N-(5-chloro-6-(2H-1,2,3-triazol-2-yl)pyridin-3-yl)-1-(2-(tetrahydrofuran-2-yl)quinolin-5-yl)-5-(trifluoromethyl)-1H-pyrazole-4-carboxamide]		
0.021	4.9	0.043	O=C(Nc1cnc(-n2nccn2)c(Cl)c1)c1cnn(-c2cccc3nc(C4CCN4)ccc23)c1C(F)(F)F (stereo not drawn) [Cpd 381, 1-(2-(azetidin-2-yl)quinolin-5-yl)-N-(5-chloro-6-(2H-1,2,3-triazol-2-yl)pyridin-3-yl)-5-(trifluoromethyl)-1H-pyrazole-4-carboxamide]		
0.324	0.661	0.562	Cn1ncc2c(-n3ncc(C(=O)Nc4cnc(-n5nccn5)c(C#N)c4)c3C(F)(F)F)cccc21 [Cpd 239, N-(5-cyano-6-(2H-1,2,3-triazol-2-yl)pyridin-3-yl)-1-(1-methyl-1H-indazol-4-yl)-5-(trifluoromethyl)-1H-pyrazole-4-carboxamide]		
0.102	0.019	0.132	N#Cc1cc(NC(=O)c2cnn(-c3ccnc4c(F)cccc34)c2C(F)(F)F)cnc1-n1nccn1 [Cpd 92, N-(5-cyano-6-(2H-1,2,3-triazol-2-yl)pyridin-3-yl)-1-(8-fluoroquinolin-4-yl)-5-(trifluoromethyl)-1H-pyrazole-4-carboxamide]		
> 15.1	0.316	8.71	O=C(Nc1ccnc(C(F)(F)F)c1)c1cnn(-c2cccc3nccn23)c1C(F)(F)F [Cpd 208, 1-(imidazo[1,2-a]pyridin-5-yl)-5-(trifluoromethyl)-N-(2-(trifluoromethyl)pyridin-4-yl)-1H-pyrazole-4-carboxamide]		
> 3.02	0.013	0.204	O=C(Nc1cnc(-n2nccn2)c(Cl)c1)c1cnn(-c2cnc(N3CC(O)C3)c3sccc23)c1C(F)(F)F [Cpd 430, N-(5-chloro-6-(2H-1,2,3-triazol-2-yl)pyridin-3-yl)-1-(7-(3-hydroxyazetidin-1-yl)thieno[2,3-c]pyridin-4-yl)-5-(trifluoromethyl)-1H-pyrazole-4-carboxamide]		
3.47	1.29	1.18	O=C(Nc1cnc(N2CCCC2=O)c(Cl)c1)c1cnn(-c2cncc3ccccc23)c1C(F)(F)F [Cpd 107, N-(5-chloro-6-(2-oxopyrrolidin-1-yl)pyridin-3-yl)-1-(isoquinolin-4-yl)-5-(trifluoromethyl)-1H-pyrazole-4-carboxamide]		
0.537	4.9	0.269	O=C1COc2ccc(NC(=O)c3cnn(-c4cccc5ncccc45)c3C(F)(F)F)cc2N1 [Cpd 217, N-(3-oxo-3,4-dihydro-2H-benzo[b][1,4]oxazin-6-yl)-1-(quinolin-5-yl)-5-(trifluoromethyl)-1H-pyrazole-4-carboxamide]		

Compound	IC50 ([1]; Homo sapiens, TMD8) [µM]	IC50 [2] [µM]	IC50 ([3]; Homo sapiens, TMD8) [µM]	IC50 [1] [µM]	IC50 [3] [µM]
N-(5-chloro-6-(4-methyl-2H-1,2,3-triazol-2-yl)pyridin-3-yl)-1-(quinolin-5-yl)-5-(trifluoromethyl)-1H-pyrazole-4-carboxamide [Cpd 304]		0.062		3.31	3.24
